Measured values as given in patent US8865653B2, “Method of treatment for immunogenic treatment resistant cancer” (Institut Gustave Roussy, priority 2010, dated 2014).

Experiments:
[1] = system: tumor infiltrating lymphocytes (TILs) of MCA205 tumors; assay: Tumor dissection and flow cytometry of TILs (IFN-γ, IL-17); assay type: in vivo, mice
Protocol: Tumor burdens were carefully removed, cut into small pieces with scissors within digesting buffer (400 U/ml Collagenase IV and 150 U/ml DNase I in RPMI1640) and incubated for 30 min at 37° C. Single cell suspension was obtained by grinding the digested tissue and filtering through 70 μM cell strainer. […] LIVE/DEAD Fixable Dead Cell Stain Kit was used to distinguish live and dead cells. For intracellular staining, freshly isolated cells were treated with, 50 ng/ml PMA, 1 μg/ml ionomycin and Golgi-stop (BD Pharmingen), 4 hrs, 37° C. in RPMI containing 2% mouse serum (Janvier, France). Cells were then washed with PBS and stained with anti-IFN-γ (PE-cy7) and anti-IL-17 (PE) using BD Cytofix/Cytoperm™ Kit following the instructions.

CT26 colon cancer = assay: Anthracycline chemotherapy of established CT26 colon cancer; assay type: in vivo, mice; settings: single intratumoral injection
Protocol: 0.8 million MCA205 or CT26 or TS/A tumor cells were inoculated subcutaneously near the thigh into C57Bl/6 (H-2^b) or BALB/c (H-2^d) mice. Anthracyclines-based chemotherapy was performed in MCA205 and CT26 models by intratumoral injecting DX (2 mM, […]) when tumors reached the size 25-40 mm^2. Radiotherapy was performed by local X-ray irradiation (10 Gy, RT250, Phillips) at the unshielded tumor area when TS/A tumor reached the size 40-60 mm^2.

MCA205 fibrosarcoma = assay: Chemotherapy and Dendrophilin treatment of established MCA205 tumors; assay type: in vivo, mice; settings: doxorubicin intratumorally
Protocol: WT or loss-of-function mice were injected in the right flank with 1×10^6 of EL4 or CT26 or MCA205 cells. Mice were then randomly assigned into treatment groups of 4-6 mice each. […] Two and/or four days after chemo treatment, mice were treated with Dendrophilin or LPS (2 μg in 100 μl NaCl per mouse i.v or i.t). […] Tumor growths were monitored every 3-4 days using a caliper.

MCA205 tumors = assay: Gene expression assays in tumors (TaqMan RT-PCR) 8 days after DX; assay type: in vivo, mice; settings: 8 days post-treatment, quantitative RT-PCR
Protocol: Whole RNA was extracted using RNeasy Mini Kit, QIAGEN from pieces of tumor homogenates. 5 μg of RNA from each sample were reverse-transcribed using Quantitect Reverse Transcription Kit (QIAGEN). Gene expression assays were performed with TaqMan® 96 well Plates customized to test cytokines, chemokines as well as transcription factors using StepOnePlus™ Real-Time PCR System. PPIA was chosen as the endogenous control to perform normalization between different samples.

MCA 205 tumors = assay: qRT-PCR of tumor gene expression after Doxorubicin; assay type: in vivo, mice; settings: 2 days after treatment; Mavs, Irf3, Irf1 and Tnf unchanged
Protocol: 0.8 Million of MCA 205 has been subcutaneously implanted to C57Bl6 mice.
Tumor samples were freshly collected, briefly washed in RPMI1640 media (GIBCO). Tissue samples were cut to a maximum thickness in any one dimension of 0.5 cm, placed in 5 volumes of RNAlater® (SIGMA ALDRICH). Samples can be stored at room temperature if processed for RNA extraction on the same day or stored at 4° C. for less than 1 month. RNA extraction from each tumor (up to 30 mg/sample) was performed using RNeasy Mini Kit (QIAGEN) following the instructions.
Add 20 μL1 of Master mix (dN6 (3 ng/μl), dNTP (1 mM), Buffer (1×), RNAsin (40 U) Superscript® III RT (200 U)) into the processed mRNA sample. Mix was incubated at 50° C. for 1 h and then inactivated at 75° C. for 15 min.
cDNA of each sample was diluted at 1:3 with DNase free water. For each sample, 4 μl of primer and probe TAQMAN (2×), 10 μl of assay mix (20×), 5 μl diluted cDNA were added. qRT-PCR was performed (45 cycles with standard PCR program using StepOnePlus™ system (Applied Biosystems). PPIA was used as endogenous control gene to normalize gene expression for data analysis.

U2OS cells = assay: US Drug library screen: CRT-GFP, HMGB1-GFP, quinacrine; settings: 1 μM, 4 h / 24 h / 16 h

With `COc1cccc2c1C(=O)c1c(O)c3c(c(O)c1C2=O)C[C@@](O)(C(=O)CO)C[C@@H]3O[C@H]1C[C@H](N)[C@H](O)[C@H](C)O1` [DX, doxorubicin] the “increase in the proportions of IFN-γ and IL-17 producing TILs” value ([1]; DX compared with PBS, flow cytometry, day 8) was 3 fold, the “IFN-γ production by CD8+ and CD4+ TILs and IL-17 production by γδ TILs” value ([1]; MCA205, post-chemotherapy) was “substantially enhanced” and the tumor growth (CT26 colon cancer) was “significantly retarded tumor growth”. The “antitumor effects of chemotherapy alone” value (MCA205 fibrosarcoma) was “only mild effects”, the “Eomes, Tbx21 (T-bet) and IFN-γ expression increase, DX versus PBS-treated tumors” value (MCA205 tumors) was 4-5 fold and the “genes involved in viral recognition and anti-viral immune responses, RT-PCR” value (MCA 205 tumors) was “specifically up-regulated”. For the same molecule, the “rank in screen for exposing CRT and emitting HMGB1 and ATP” value (U2OS cells) was “most potent in exposing CRT, and emitting HMGB1 and ATP”.
